# Measurements as given in the supplement of paper PMC11208160.
# Assay: recombinant UMI read abundance after kanamycin selection (control-corrected) (log10(CPM+1)); higher = more efficient recombination; extreme values may be limits of the assay; sequences stand for … in AGTGCAGAGAAAATCGGCCAGTTTTCTCTGCCTGCAGTCCGCATGCCGTGGGACCCCTTGGGTTCTAACCTGTTGCCTAGATTTATGCAGCGGACTGCCTTTCTCCCAAAGTGATAAACCGG…AGGTTGGTTTCACT; site = the 11-nt donor
# Procedure, shortened: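 In a pooled Escherichia coli screen for the IS621 bridge recombinase, donor and donor-binding-loop pairs were each placed with a 12-nt UMI on a plasmid bearing a promoterless kanamycin gene. This library was co-electroporated with a target plasmid encoding a fixed target and T7-inducible recombinase, and cells were plated either on IPTG (0.07 mM) plus kanamycin or without selection, in two replicates each. Recombinant UMIs were PCR-amplified across the donor–target junction and sequenced, and counts were converted to CPM, averaged over replicates, scaled by control-derived factors and reported as log10(CPM+1).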
row,Sequence,recombinant UMI read abundance (log10)
1,CAAGCGCCATGGACCGGTTTTCCCGGTAATCCGTATTTGAG (site CAAGCGCCTCA),0.0151
2,CAAGCGCCATGGACCGGTTTTCCCGGTAATCCGTATTTGAG (site CAAGCGCCTCC),0.0109
3,CAAGCGCCATGGACCGGTTTTCCCGGTAATCCGTATTTGAG (site CAAGCGCCTCG),0.0182
4,CAAGCGCCATGGACCGGTTTTCCCGGTAATCCGTATTTGAG (site CAAGCGCCTCT),0.322
5,CAAGCGCCATGGACCGGTTTTCCCGGTAATCCGTATTTGTA (site CAAGCGCCTAA),0.239
6,CAAGCGCCATGGACCGGTTTTCCCGGTAATCCGTATTTGTA (site CAAGCGCCTCA),0.173
7,CAAGCGCCATGGACCGGTTTTCCCGGTAATCCGTATTTGTA (site CAAGCGCCTGA),1.01
8,CAAGCGCCATGGACCGGTTTTCCCGGTAATCCGTATTTGTA (site CAAGCGCCTTA),1.49
9,CAAGCGTCATGGACCGGTTTTCCCGGTAATCCGTATTTGTG (site CAAGCGACTCA),0.101
10,CAAGCGTCATGGACCGGTTTTCCCGGTAATCCGTATTTGTG (site CAAGCGCCTCA),0.0275
11,CAAGCGTCATGGACCGGTTTTCCCGGTAATCCGTATTTGTG (site CAAGCGGCTCA),0.00505
12,CAAGCGTCATGGACCGGTTTTCCCGGTAATCCGTATTTGTG (site CAAGCGTCTCA),2.6
13,CAAGGAACATGGACCGGTTTTCCCGGTAATCCGTATTTGCT (site CAAGGAACTAG),2.26
14,CAAGGAGCATGGACCGGTTTTCCCGGTAATCCGTATTTGCT (site CAAGAAGCTAG),2.45
15,CAAGGAGCATGGACCGGTTTTCCCGGTAATCCGTATTTGCT (site CAAGCAGCTAG),2.16
16,CAAGGAGCATGGACCGGTTTTCCCGGTAATCCGTATTTGCT (site CAAGGAGCTAG),2.76
17,CAAGGAGCATGGACCGGTTTTCCCGGTAATCCGTATTTGCT (site CAAGTAGCTAG),2.2
18,CAAGGCCCATGGACCGGTTTTCCCGGTAATCCGTATTTGTC (site CAAGGCCCTGA),2.07
19,CAAGGCTCATGGACCGGTTTTCCCGGTAATCCGTATTTGAA (site CAAAGCTCTTT),2.15
20,CAAGGCTCATGGACCGGTTTTCCCGGTAATCCGTATTTGAA (site CAACGCTCTTT),0.00296
21,CAAGGCTCATGGACCGGTTTTCCCGGTAATCCGTATTTGAA (site CAAGGCTCTTT),2.71
22,CAAGGCTCATGGACCGGTTTTCCCGGTAATCCGTATTTGAA (site CAATGCTCTTT),0.368
23,CAAGTATCATGGACCGGTTTTCCCGGTAATCCGTATTTGAC (site CAAGTATCTGT),2.94
24,CAAGTATCATGGACCGGTTTTCCCGGTAATCCGTATTTGAC (site CCAGTATCTGT),0.955
25,CAAGTATCATGGACCGGTTTTCCCGGTAATCCGTATTTGAC (site CGAGTATCTGT),2.2

row,Sequence,recombinant UMI read abundance (log10)
1,CAAGTATCATGGACCGGTTTTCCCGGTAATCCGTATTTGAC (site CTAGTATCTGT),2.04
2,CAAGTCACATGGACCGGTTTTCCCGGTAATCCGTATTTGGT (site CAAGTCACTAC),1.84
3,CAAGTCACATGGACCGGTTTTCCCGGTAATCCGTATTTGGT (site CAAGTCACTCC),0.00397
4,CAAGTCACATGGACCGGTTTTCCCGGTAATCCGTATTTGGT (site CAAGTCACTGC),2.43
5,CAAGTCACATGGACCGGTTTTCCCGGTAATCCGTATTTGGT (site CAAGTCACTTC),0.155
6,CAAGTCACATGGACCGGTTTTCCCGGTAATCCGTATTTGTT (site CAAGTCACTAA),2.2
7,CAATACACATGGACCGGTTTTCCCGGTAATCCGTATTTGCA (site CAATACACTTG),2.2
8,CAATACCCATGGACCGGTTTTCCCGGTAATCCGTATTTGCT (site CAATACCCTAG),1.93
9,CAATACCCATGGACCGGTTTTCCCGGTAATCCGTATTTGCT (site CAATCCCCTAG),1.55
10,CAATACCCATGGACCGGTTTTCCCGGTAATCCGTATTTGCT (site CAATGCCCTAG),0.00435
11,CAATACCCATGGACCGGTTTTCCCGGTAATCCGTATTTGCT (site CAATTCCCTAG),0
12,CAATAGCCATGGACCGGTTTTCCCGGTAATCCGTATTTGCC (site CAATAGCCTGG),0.755
13,CAATATCCATGGACCGGTTTTCCCGGTAATCCGTATTTGTT (site CAATATCCTAA),1.7
14,CAATCAGCATGGACCGGTTTTCCCGGTAATCCGTATTTGCT (site CAAACAGCTAG),0
15,CAATCAGCATGGACCGGTTTTCCCGGTAATCCGTATTTGCT (site CAACCAGCTAG),0.798
16,CAATCAGCATGGACCGGTTTTCCCGGTAATCCGTATTTGCT (site CAAGCAGCTAG),0.0241
17,CAATCAGCATGGACCGGTTTTCCCGGTAATCCGTATTTGCT (site CAATCAGCTAG),0.199
18,CAATCCTCATGGACCGGTTTTCCCGGTAATCCGTATTTGAA (site CAATACTCTTT),1.33
19,CAATCCTCATGGACCGGTTTTCCCGGTAATCCGTATTTGAA (site CAATCCTCTTT),1.98
20,CAATCCTCATGGACCGGTTTTCCCGGTAATCCGTATTTGAA (site CAATGCTCTTT),0.00935
21,CAATCCTCATGGACCGGTTTTCCCGGTAATCCGTATTTGAA (site CAATTCTCTTT),0
22,CAATGAGCATGGACCGGTTTTCCCGGTAATCCGTATTTGGG (site AAATGAGCTCC),0.0303
23,CAATGAGCATGGACCGGTTTTCCCGGTAATCCGTATTTGGG (site CAATGAGCTCC),0.779
24,CAATGAGCATGGACCGGTTTTCCCGGTAATCCGTATTTGGG (site GAATGAGCTCC),0.00334
25,CAATGAGCATGGACCGGTTTTCCCGGTAATCCGTATTTGGG (site TAATGAGCTCC),0.0682

row,Sequence,recombinant UMI read abundance (log10)
1,CAATGCCCATGGACCGGTTTTCCCGGTAATCCGTATTTGCT (site CAATACCCTAG),1.74
2,CAATGCCCATGGACCGGTTTTCCCGGTAATCCGTATTTGCT (site CAATCCCCTAG),0.246
3,CAATGCCCATGGACCGGTTTTCCCGGTAATCCGTATTTGCT (site CAATGCCCTAG),1.34
4,CAATGCCCATGGACCGGTTTTCCCGGTAATCCGTATTTGCT (site CAATTCCCTAG),0
5,CAATGCGCATGGACCGGTTTTCCCGGTAATCCGTATTTGAA (site CAATGCACTTT),1.15
6,CAATGCGCATGGACCGGTTTTCCCGGTAATCCGTATTTGAA (site CAATGCCCTTT),0.0173
7,CAATGCGCATGGACCGGTTTTCCCGGTAATCCGTATTTGAA (site CAATGCGCTTT),1.9
8,CAATGCGCATGGACCGGTTTTCCCGGTAATCCGTATTTGAA (site CAATGCTCTTT),0.823
9,CAATGCTCATGGACCGGTTTTCCCGGTAATCCGTATTTGAC (site CAATGCTCTAT),0.737
10,CAATGCTCATGGACCGGTTTTCCCGGTAATCCGTATTTGAC (site CAATGCTCTCT),0.051
11,CAATGCTCATGGACCGGTTTTCCCGGTAATCCGTATTTGAC (site CAATGCTCTGT),3.03
12,CAATGCTCATGGACCGGTTTTCCCGGTAATCCGTATTTGAC (site CAATGCTCTTT),1.28
13,CAATGCTCATGGACCGGTTTTCCCGGTAATCCGTATTTGAT (site CAATGCTCTAT),2.87
14,CAATGCTCATGGACCGGTTTTCCCGGTAATCCGTATTTGAT (site CAATGCTCTCT),0.607
15,CAATGCTCATGGACCGGTTTTCCCGGTAATCCGTATTTGAT (site CAATGCTCTGT),1.36
16,CAATGCTCATGGACCGGTTTTCCCGGTAATCCGTATTTGAT (site CAATGCTCTTT),0.993
17,CAATTAACATGGACCGGTTTTCCCGGTAATCCGTATTTGTT (site CAATTAACTAA),0.00834
18,CAATTCCCATGGACCGGTTTTCCCGGTAATCCGTATTTGCT (site AAATTCCCTAG),0
19,CAATTCCCATGGACCGGTTTTCCCGGTAATCCGTATTTGCT (site CAAATCCCTAG),0.763
20,CAATTCCCATGGACCGGTTTTCCCGGTAATCCGTATTTGCT (site CAACTCCCTAG),1.16
21,CAATTCCCATGGACCGGTTTTCCCGGTAATCCGTATTTGCT (site CAAGTCCCTAG),1.05
22,CAATTCCCATGGACCGGTTTTCCCGGTAATCCGTATTTGCT (site CAATACCCTAG),0.712
23,CAATTCCCATGGACCGGTTTTCCCGGTAATCCGTATTTGCT (site CAATCCCCTAG),0.539
24,CAATTCCCATGGACCGGTTTTCCCGGTAATCCGTATTTGCT (site CAATGCCCTAG),0
25,CAATTCCCATGGACCGGTTTTCCCGGTAATCCGTATTTGCT (site CAATTACCTAG),0
